In the OPERA property sets (Mansouri et al. 2018):

Structure (SMILES)	logP
CCc1cc(Br)ccc1NC(C)=O	2.27
CC(=O)Nc1ccc(C(N)=O)cc1	0.01
COc1cc(Br)ccc1NC(C)=O	2.02
CC(=O)Nc1cc(C(F)(F)F)cc(C(F)(F)F)c1	3.72
CC(=O)Nc1c(F)c(F)c(F)c(F)c1F	1.7
CC(=O)Nc1c(Cl)cccc1Cl	1.32
CC(=O)Nc1cc(C(F)(F)F)c(F)cc1F	2.34
CC(=O)Nc1ccccc1-c1ccccc1	2.02
CC(=O)Nc1c(C)cc(C)cc1[N+](=O)[O-]	1.18
NC(=O)c1ccccc1C(F)(F)F	0.68
CC(=O)Nc1c(F)ccc(C(F)(F)F)c1Br	2.22
COc1ccc(NC(C)=O)cc1Cl	1.81
COc1cccc(NC(C)=O)c1C	1.13
COc1ccc(OC)c(Cl)c1	2.69
CC(=O)Nc1ccc(C)c(C)c1C	1.76
CC(=O)Nc1ccc(C)cc1C	1.46
CCc1cc(NC(C)=O)ccc1Br	3.33
CC(C)c1ccccc1[N+](=O)[O-]	3.34
CC(=O)Nc1cc(Cl)cc(Cl)c1Br	3.04
CCCCc1ccc(NC(C)=O)c([N+](=O)[O-])c1	3.1
CC(=O)Nc1cc(C(F)(F)F)cc(Cl)c1Cl	3.27

Structure (SMILES)	logP
CC(=O)Nc1c([N+](=O)[O-])cccc1[N+](=O)[O-]	0.56
NC(=O)c1ccccc1I	0.93
NC(=O)c1c(F)cccc1Br	0.63
CC(=O)Nc1cc(C(F)(F)F)c(Br)cc1F	3.17
CC(=O)Nc1cc(C(F)(F)F)c(Cl)cc1F	3.02
CC(=O)Nc1cc(C(F)(F)F)c(Cl)cc1Cl	3.24
NC(=O)c1c(Cl)cccc1[N+](=O)[O-]	0.12
CC(=O)Nc1cc(Cl)cc(C(F)(F)F)c1Cl	3.27
CC(=O)Nc1cc(C)ccc1C	1.47
COc1cccc(OC)c1C(N)=O	-0.22
COc1ccccc1C(=O)N(C)C	0.71
CC(=O)Nc1ccccc1Oc1ccccc1	2.37
CC(=O)Nc1ccc(Br)c(C)c1Cl	2.73
COc1cccc(Cl)c1C(N)=O	0.59
CCc1ccccc1NC(C)=O	1.32
O=[N+]([O-])c1ccc(Cl)cc1[N+](=O)[O-]	2.18
N#Cc1cccc(C(N)=O)c1	0.52
CCOc1ccc(C(N)=O)cc1	1.3
Cc1cccc(C)c1C(N)=O	0.9
CCCCc1ccc(NC(C)=O)cc1C	3.64
CCCCc1ccc(NC(C)=O)cc1	3.3

Structure (SMILES)	logP
CC(=O)Nc1cc(C)cc(C)c1	2.17
CC(=O)Nc1c(C)cccc1Cl	1.22
N#Cc1ccccc1[N+](=O)[O-]	1.02
CC(=O)Nc1ccc(Cl)c(Cl)c1	3
COc1cccc(OC)c1	2.21
CC(=O)Nc1cccc(Cl)c1	2.15
CC(=O)Nc1c(C(C)C)cccc1C(C)C	2.41
CC(=O)Nc1ccccc1Br	1.34
CC(=O)Nc1ccc(Cl)cc1F	1.91
CC(=O)Nc1cc(Cl)ccc1C	1.82
CCc1ccccc1C(N)=O	1.17
CC(=O)Nc1cc(C)c(C)c(C)c1	2.5
CCCc1cc(NC(C)=O)ccc1OC	2.72
NC(=O)c1c(Cl)cccc1Cl	0.77
CC(=O)Nc1ccc(Cl)cc1[N+](=O)[O-]	1.78
CCc1cccc(C(C)C)c1NC(C)=O	2.1
C=CCOc1cc(NC(C)=O)c(F)cc1Cl	2.76
COc1ccc(NC(C)=O)c([N+](=O)[O-])c1	1.09
CC(=O)Nc1cccc(Cl)c1Cl	2.09
Cc1ccccc1C(N)=O	0.76
CC(=O)Nc1ccc(C)cc1	1.7

Structure (SMILES)	logP
COc1cccc([N+](=O)[O-])c1C	2.68
CC(=O)Nc1c(C)cccc1C	1.07
CC(=O)Nc1ccc(Oc2ccccn2)cc1	1.57
CC(=O)Nc1cc(F)cc(C(F)(F)F)c1Cl	2.86
CC(=O)Nc1cc(C)c(O)cc1C	0.6
O=[N+]([O-])c1cc(C(F)(F)F)cc([N+](=O)[O-])c1Cl	2.5
CC(=O)Nc1c(F)cccc1F	0.69
COc1ccccc1F	2.14
CCc1ccccc1OC	3.18
CC(=O)Nc1ccc(Cl)c(Cl)c1Cl	2.88
CC(=O)Nc1ccc(Cl)cc1Cl	2.18
CC(=O)Nc1ccc(Cl)cc1C(F)(F)F	1.98
CC(=O)Nc1cc([N+](=O)[O-])c(Br)cc1F	2.11
COc1c(Cl)cccc1NC(C)=O	1.68
CCc1ccc(NC(C)=O)cc1	2.2
CC(=O)Nc1cc(Cl)cc(Cl)c1	3.17
CC(=O)Nc1ccccc1I	1.62
Cc1cccc([N+](=O)[O-])c1C(N)=O	0.1
CC(=O)Nc1cc(Br)cc(C(F)(F)F)c1Cl	3.41

Second part, the molecule after the results:

logP	Structure (SMILES)
1.28	COc1c(C)cccc1NC(C)=O
0.77	NC(=O)c1ccccc1Br
1	NC(=O)c1c(Cl)cccc1Br
0.25	NC(=O)c1c(F)cccc1F
2.62	CC(=O)Nc1ccc(OC(F)(F)F)cc1
2.19	CC(=O)Nc1cc(Cl)ccc1Cl
2.8	CC(=O)Nc1ccc(Br)c(C)c1
1.03	CC(=O)Nc1ccccc1F
1.82	CC(=O)Nc1cccc(Cl)c1C
0.59	NC(=O)c1ccccc1F
3.15	CC(=O)Nc1cc(Cl)cc(C(F)(F)F)c1F
2.51	CC(C)(C)c1ccc(C(N)=O)cc1
2.69	CC(=O)Nc1ccc(C)c(Cl)c1
0.99	N#Cc1ccccc1C#N
0.64	NC(=O)c1ccccc1Cl
2.12	CC(=O)Nc1c(C)cc(Br)cc1C
1.35	CC(=O)Nc1cccc(C)c1C
1.83	CC(=O)Nc1cccc(Cl)c1F
2.69	CC(=O)Nc1ccc(Br)c(Cl)c1C
1.85	CCc1cccc(CC)c1NC(C)=O
3.71	CC(=O)Nc1cc(OC(F)(F)F)c(Cl)cc1Cl
2.03	CC(=O)Nc1ccc(Br)cc1C
2.31	CC(=O)Nc1cccc(Br)c1
0.49	NC(=O)c1c(F)cccc1Cl
2.86	COc1ccccc1Br
0.48	N#Cc1ccc(C(N)=O)cc1
-0.26	COc1cccc([N+](=O)[O-])c1C(N)=O

logP	Structure (SMILES)
1.47	CC(=O)Nc1cccc([N+](=O)[O-])c1
2.87	COc1cccc(OC)c1C
1	NC(=O)c1c(Br)cccc1Br
1.41	CCc1cccc(C)c1NC(C)=O
0.89	Cc1cccc(Cl)c1C(N)=O
1.17	CC(=O)Nc1ccccc1C(F)(F)F
2.68	COc1ccccc1Cl
3.76	CC(=O)Nc1cc(Cl)c(Cl)c(Cl)c1
1.39	CC(C)c1ccccc1C(N)=O
3.28	CC(=O)Nc1cc(C)c(Br)c(C)c1
3.39	CCCCc1ccc(NC(C)=O)c(Br)c1
3.1	CCCCc1ccc(NC(C)=O)c(C)c1
3.26	CC(=O)Nc1cc(Cl)cc(C(F)(F)F)c1Br
0.61	CC(=O)Nc1c(C)cccc1[N+](=O)[O-]
2.24	CC(=O)Nc1cc(C(F)(F)F)ccc1Cl
2.86	CC(=O)Nc1ccc(Br)c(Cl)c1F
0.28	NC(=O)c1c(Br)cccc1[N+](=O)[O-]
1.49	CC(=O)Nc1ccc(C)cc1[N+](=O)[O-]
3.33	CC(=O)Nc1ccc(Cl)c(C(F)(F)F)c1
2.9	CC(=O)Nc1cc(Cl)c(F)c(Cl)c1F
2.1	CC(=O)Nc1ccc(C)c(C)c1
1.53	CC(=O)Nc1c(Br)cccc1Br
2.76	COc1ccc(C)c(OC)c1
1.3	COc1cccc(NC(C)=O)c1
1.65	CC(=O)Nc1cccc(F)c1
2.24	CC(=O)Nc1cc(C(F)(F)F)ccc1F
